Source: ChEMBL document CHEMBL1201862, “PubChem BioAssay data set” (2004)
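Test compounds were applied to cells in 96-well plates for 48 hours at 5 doses. GI50 marks 50% less growth.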 Active and inactive are the calls of the source. Rule as the data show it: active = GI50 up to about 1.1 µM and inactive = higher.

Assays:
Assay in all cases: growth of human tumour cells (NCI), 48 h
BT-549 = system: BT-549
T47D = system: T47D
RPMI-8226 = system: RPMI-8226
K562 = system: K562
EKVX = system: EKVX
HOP-62 = system: HOP-62
A498 = system: A498
MDA-MB-435 = system: MDA-MB-435
OVCAR-4 = system: OVCAR-4
UACC-257 = system: UACC-257
OVCAR-5 = system: OVCAR-5
DU-145 = system: DU-145
HCT-15 = system: HCT-15
MCF7 = system: MCF7
HL-60 = system: HL-60
PC-3 = system: PC-3
NCI-H460 = system: NCI-H460
NCI-H23 = system: NCI-H23
HCC 2998 = system: HCC 2998
SNB-19 = system: SNB-19
TK-10 = system: TK-10
SK-MEL-28 = system: SK-MEL-28
786-0 = system: 786-0
COLO 205 = system: COLO 205
HT-29 = system: HT-29
LOX IMVI = system: LOX IMVI
U-251 = system: U-251
CCRF-CEM = system: CCRF-CEM
CAKI-1 = system: CAKI-1
IGROV-1 = system: IGROV-1
UACC-62 = system: UACC-62
MOLT-4 = system: MOLT-4
UO-31 = system: UO-31
SK-OV-3 = system: SK-OV-3
MDA-N = system: MDA-N
SK-MEL-2 = system: SK-MEL-2
SF-539 = system: SF-539
SR = system: SR
OVCAR-3 = system: OVCAR-3
ACHN = system: ACHN
A549 = system: A549
SK-MEL-5 = system: SK-MEL-5
HCT-116 = system: HCT-116
SN12C = system: SN12C
OVCAR-8 = system: OVCAR-8
SW-620 = system: SW-620
NCI/ADR-RES = system: NCI/ADR-RES
MDA-MB-231 = system: MDA-MB-231
KM12 = system: KM12
SF-295 = system: SF-295
RXF 393 = system: RXF 393
M14 = system: M14
HOP-92 = system: HOP-92

O=c1oc2cc(O)ccc2cc1-c1nc2ccccc2s1
GI50 (BT-549): 16.9 µM (inactive)
GI50 (T47D): 31.3 µM (inactive)
GI50 (RPMI-8226): 11.5 µM (inactive)
GI50 (K562): 7.41 µM (inactive)
GI50 (EKVX): 27.2 µM (inactive)
GI50 (HOP-62): 20.9 µM (inactive)
GI50 (A498): 19.6 µM (inactive)
GI50 (MDA-MB-435): 27.3 µM (inactive)
GI50 (OVCAR-4): 28.2 µM (inactive)
GI50 (UACC-257): 22.6 µM (inactive)
GI50 (OVCAR-5): 30.8 µM (inactive)
GI50 (DU-145): 29.2 µM (inactive)
GI50 (HCT-15): 20.1 µM
GI50 (MCF7): 23.9 µM (inactive)
GI50 (HL-60): 16.1 µM (inactive)
GI50 (PC-3): 22.8 µM (inactive)
GI50 (NCI-H460): 21.2 µM (inactive)
GI50 (NCI-H23): 21.1 µM (inactive)
GI50 (HCC 2998): 27.5 µM (inactive)
GI50 (SNB-19): 30.8 µM (inactive)
GI50 (TK-10): 30.1 µM (inactive)
GI50 (SK-MEL-28): 0.0656 µM (active)
GI50 (786-0): 22.8 µM (inactive)
GI50 (COLO 205): 0.109 µM (active)
GI50 (HT-29): 29 µM (inactive)
GI50 (LOX IMVI): 25.9 µM (inactive)
GI50 (U-251): 23 µM (inactive)
GI50 (CCRF-CEM): 10.4 µM (inactive)
GI50 (CAKI-1): 22.9 µM (inactive)
GI50 (IGROV-1): 35.4 µM (inactive)
GI50 (UACC-62): 7.21 µM (inactive)
GI50 (MOLT-4): 0.678 µM (active)
GI50 (UO-31): 16.4 µM (inactive)
GI50 (SK-OV-3): 38.8 µM (inactive)
GI50 (MDA-N): 19.1 µM (inactive)
GI50 (SK-MEL-2): 21.8 µM (inactive)
GI50 (SF-539): 24.7 µM (inactive)
GI50 (SR): 25.8 µM (inactive)
GI50 (OVCAR-3): 16.3 µM (inactive)
GI50 (ACHN): 22.5 µM (inactive)
GI50 (A549): 19.1 µM (inactive)
GI50 (SK-MEL-5): 11.1 µM (inactive)
GI50 (HCT-116): 21.8 µM (inactive)
GI50 (SN12C): 21.8 µM (inactive)
GI50 (OVCAR-8): 34.7 µM (inactive)
GI50 (SW-620): 12.2 µM (inactive)
GI50 (NCI/ADR-RES): 18.7 µM (inactive)
GI50 (MDA-MB-231): 23.7 µM (inactive)
GI50 (KM12): 42.3 µM (inactive)
GI50 (SF-295): 54.1 µM (inactive)
GI50 (RXF 393): 31.7 µM (inactive)
GI50 (M14): 24.5 µM (inactive)
GI50 (HOP-92): 27.7 µM (inactive)
